This note sets out measurements from publication PMC10586439 (ACS Omega, 2023).

Experiment [1] deals with MDA-MB-231 human breast carcinoma cell line. The experiment can be described thus: MTT cytotoxicity assay against MDA-MB-231 breast carcinoma cell line. The experiment is classed as cell-based.
Experiment [2] has as its system MDA-MB-231 cells. The experiment can be described thus: Cell cycle analysis by flow cytometry. The format is cell-based, human.
Experiment [3] concerns MDA-MB-231 cells. In words: Annexin V-FITC/PI apoptosis assay by flow cytometry. The format is cell-based, human. The conditions noted are these: MDA-MB-231, 48 h, compound at its IC50. (A flow cytometer gives signals particle by particle.)
Another experiment concerns the target β-tubulin (Homo sapiens, UniProt P07437+P68363). In words: β-Tubulin polymerization inhibition. The experiment is classed as biochemical. The conditions noted are these: read-out: β-tubulin polymerization inhibition percentage.
Experiment [4] concerns normal MCF-10A breast cells. The experiment can be described thus: MTT cytotoxicity assay on normal MCF-10A breast cells. The experiment is classed as cell-based. The conditions noted are these: for IC50: Homo sapiens, MCF-10A, read-out: IC50 value (μM) MCF-10A. A general note: Formazan colour is commonly taken as a measure of viable cells.
Where [5] appears, read: MDA-MB-231, 24 h, read-out: IC50 value (μM) MDA-MB-231.
Where [6] appears, read: MDA-MB-231, read-out: IC50 against MDA-MB-231 cells.

Like-named read-outs stand apart in the source and are kept apart here.

Sequence of β-tubulin (P07437 whole entry): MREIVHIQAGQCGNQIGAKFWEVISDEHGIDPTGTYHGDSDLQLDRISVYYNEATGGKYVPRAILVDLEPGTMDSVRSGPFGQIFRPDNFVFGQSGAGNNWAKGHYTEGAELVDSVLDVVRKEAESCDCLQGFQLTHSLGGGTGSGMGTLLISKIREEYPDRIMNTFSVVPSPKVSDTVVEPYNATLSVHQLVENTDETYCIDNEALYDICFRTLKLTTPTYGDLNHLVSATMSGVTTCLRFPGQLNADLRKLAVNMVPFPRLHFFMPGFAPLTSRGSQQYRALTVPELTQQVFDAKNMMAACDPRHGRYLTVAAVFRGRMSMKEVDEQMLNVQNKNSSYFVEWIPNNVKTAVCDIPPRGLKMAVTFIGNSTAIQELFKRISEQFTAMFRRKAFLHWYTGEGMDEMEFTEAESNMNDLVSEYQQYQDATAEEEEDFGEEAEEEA
Sequence of β-tubulin (P68363 whole entry): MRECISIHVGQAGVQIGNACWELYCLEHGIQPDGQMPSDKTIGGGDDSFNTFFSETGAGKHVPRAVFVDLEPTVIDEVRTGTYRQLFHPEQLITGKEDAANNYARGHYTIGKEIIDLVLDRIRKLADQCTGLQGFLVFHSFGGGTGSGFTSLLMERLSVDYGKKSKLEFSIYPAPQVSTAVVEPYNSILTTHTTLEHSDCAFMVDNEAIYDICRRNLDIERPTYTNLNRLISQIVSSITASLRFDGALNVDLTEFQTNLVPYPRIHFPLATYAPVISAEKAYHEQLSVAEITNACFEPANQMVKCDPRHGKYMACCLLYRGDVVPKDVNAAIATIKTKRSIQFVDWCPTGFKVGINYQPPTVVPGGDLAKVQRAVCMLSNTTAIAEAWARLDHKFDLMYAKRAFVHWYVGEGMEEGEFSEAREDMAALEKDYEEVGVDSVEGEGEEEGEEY

The term IC50 denotes the point on the concentration scale where inhibition reaches its midpoint. Regarding `COc1ccc(C(=O)N/C(=C\c2ccc(Cl)cc2)C(=O)O)cc1OC` [4a, (Z)-3-(4-Chlorophenyl)-2-(3,4-dimethoxybenzamido)acrylic Acid], the IC50 in experiment [1] (setting [5]) is 8.24 ± 0.37 µM; in experiment [1] (setting [6]) it was 8.55 to 15.9 µM.

As usually defined, the inhibition is the relative decrease from the control value, in per cent. As for `COc1cc(C(=O)N/C(=C\c2ccc(Cl)cc2)C(=O)O)cc(OC)c1OC` [4b, (Z)-3-(4-Chlorophenyl)-2-(3,4,5-trimethoxybenzamido)acrylic Acid], the “percentage of cells in G2/M phase” value with MDA-MB-231 cells [2] (MDA-MB-231, 48 h, compound at its IC50, untreated control 7.35%) turned out to be 28.08%. In addition, the “cell accumulation at G2/M stage, times higher than untreated control” value in the experiment on MDA-MB-231 cells [2] (MDA-MB-231, compound at its IC50) is given as 3.82 times. Also, the late-secondary cellular apoptosis in the experiment on MDA-MB-231 cells [3] (untreated control 0.24%) came to 12.62%. This compound also returned an early primary apoptosis in the experiment on MDA-MB-231 cells [3] (untreated control 0.69%) of 8.09%. In addition, the inhibition at 25 µM at β-tubulin worked out at 80.1%. Besides, the IC50 in experiment [4] was 23.3 ± 0.32 µM; in experiment [1] (setting [5]), 3.24 ± 0.13 µM. Further, the “mean tumor selectivity index” value in experiment [4] (MCF-10A versus MDA-MB-231) is 7.2.

In the case of `COC(=O)/C(=C/c1ccc(Cl)cc1)NC(=O)c1ccc(OC)c(OC)c1` [5a, (Z)-Methyl 3-(4-Chlorophenyl)-2-(3,4-dimethoxybenzamido)acrylate], the inhibition at 25 µM at β-tubulin is 57.1%. The IC50 in experiment [1] (setting [5]) came to 4.84 ± 0.19 µM.

Consider `CCOC(=O)/C(=C/c1ccc(Cl)cc1)NC(=O)c1ccc(OC)c(OC)c1` [5b, (Z)-Ethyl 3-(4-Chlorophenyl)-2-(3,4-dimethoxybenzamido)acrylate], for which the IC50 in experiment [1] (setting [5]) turned out to be 15.8 ± 0.41 µM.

As for `CCCOC(=O)/C(=C/c1ccc(Cl)cc1)NC(=O)c1ccc(OC)c(OC)c1` [5c, (Z)-Propyl 3-(4-Chlorophenyl)-2-(3,4-dimethoxybenzamido)acrylate], the IC50 in experiment [1] (setting [5]) was found to be 14.3 ± 0.33 µM.

For `CCCCOC(=O)/C(=C/c1ccc(Cl)cc1)NC(=O)c1ccc(OC)c(OC)c1` [5d, (Z)-Butyl 3-(4-Chlorophenyl)-2-(3,4-dimethoxybenzamido)acrylate], the IC50 worked out at 45.9 ± 1.02 µM in experiment [1] (setting [5]) and 45.8 µM in experiment [1] (setting [6]).

Take `COC(=O)/C(=C/c1ccc(Cl)cc1)NC(=O)c1cc(OC)c(OC)c(OC)c1` [5e, (Z)-Methyl 3-(4-Chlorophenyl)-2-(3,4,5-trimethoxybenzamido)acrylate]: the inhibition at 25 µM on β-tubulin came out at 77.8%. Moreover, the values for the IC50 in experiment [1] (setting [5]) and in experiment [1] (setting [6]) were 4.03 ± 0.16 µM and 4.06 µM, respectively.

Take `CCOC(=O)/C(=C/c1ccc(Cl)cc1)NC(=O)c1cc(OC)c(OC)c(OC)c1` [5f, (Z)-Ethyl 3-(4-Chlorophenyl)-2-(3,4,5-trimethoxybenzamido)acrylate]: in experiment [1] (setting [5]), the IC50 came out at 11.6 ± 0.24 µM.

For the compound `CCCOC(=O)/C(=C/c1ccc(Cl)cc1)NC(=O)c1cc(OC)c(OC)c(OC)c1` [5g, (Z)-Propyl 3-(4-Chlorophenyl)-2-(3,4,5-trimethoxybenzamido)acrylate], the IC50 in experiment [1] (setting [5]) turned out to be 23.2 ± 0.4 µM.

On to `COc1cc(C(=O)N/C(=C\c2ccc(Cl)cc2)C(=O)OC(C)C)cc(OC)c1OC` [5h, (Z)-Isopropyl 3-(4-Chlorophenyl)-2-(3,4,5-trimethoxybenzamido)acrylate], for which the IC50 in experiment [1] (setting [5]) came to 25.2 ± 0.51 µM.

As to `CCCCOC(=O)/C(=C/c1ccc(Cl)cc1)NC(=O)c1cc(OC)c(OC)c(OC)c1` [5i, (Z)-Butyl 3-(4-Chlorophenyl)-2-(3,4,5-trimethoxybenzamido)acrylate], in experiment [1] (setting [5]), the half-maximal inhibitory concentration (IC50) was 28.1 ± 0.56 µM.

As for `COc1ccc(/C=C\c2cc(OC)c(OC)c(OC)c2)cc1O` [CA-4, combretastatin A-4, reference compound], at β-tubulin, the inhibition at 25 µM amounted to 89.8%. For the same compound, the IC50 in experiment [4] amounted to 14.2 ± 0.29 µM; in experiment [1] (setting [5]), 1.27 µM.
